Data as given in US9561220B2, “Group of alkaloids, the novel autophagic enhancers for treatment of cancers and neurodegenerative conditions thereof” (Macau University of Science and Technology, priority 2014, dated 2017).
Like-named read-outs stand apart in the source and are kept apart here. Values belong to the molecule of their own block, whether it stands above or below them.

Tests used:
[1] = system: panel of human cancer cells (HeLa, MCF-7, HepG2, Hep3B, H1299, A549, PC3); test: cells; type: cell-based
Experimental: The test compounds of liensinine, isoliensinine, dauricine, cepharanthine, hernandezine and thalidezine were dissolved in DMSO at a final concentration of 100 mmol/L and stored at −20° C. Cytotoxicity was assessed using the 3-(4,5-dimethylthiazol-2-yl)-2,5-diphenyltetrazolium bromide assay as described previously. 4000-8000 HeLa (human cervical cancer), MCF-7 (human breast cancer), HepG2 (human liver cancer), Hep3B (human liver cancer), H1299 (human lung cancer), A549 (human lung cancer), PC3 (human prostate cancer) and LO2 (human normal liver) cells were seeded on 96-well plates per well. After overnight pre-incubation, the cells were exposed to different concentrations of liensinine, isoliensinine, dauricine, cepharanthine, hernandezine and thalidezine (0.039-100 μmol/L) for 3 days. Specifically, the following concentrations are used for all of the above alkaloids: […], 0.039 μmol/L. Subsequently, 10 μL of MTT reagents was added to each well and incubated at 37° C. for 4 hours followed by the addition of 100 μL solubilization buffer (10% SDS in 0.01 mol/L HCl) and overnight incubation. Absorbance at 585 nm was determined from each well on the following day. The percentage of cell viability was calculated using the following formula: Cell viability (%)=Cells number treated/Cells number DMSO control×100. Data was obtained from three independent experiments.

AMPK = test: Detection of mTOR signaling marker proteins: AMPK phosphorylation (Western blot); type: cell-based, human; conditions: HeLa cells, 20 μM liensinine or 10 μM others, compared to DMSO control (FIG. 5a)
Experimental: HeLa cells treated with 20 μM of […], 10 μM of isoliensinine, 10 μM of dauricine, 10 μM of cepharanthine, 10 μM of hernandezine and 10 μM of thalidezine were harvested and lysed in RIPA buffer (Cell Signaling). The cell lysates were then resolved by SDS-PAGE. After electrophoresis, the proteins from SDS-PAGE were transferred to nitrocellulose membrane which was then blocked with 5% non-fat dried milk for 60 minutes. The membrane was then incubated with P-p70S6K, p70S6K, P-AMPK, AMPK and actin primary antibodies (1:1000) in TBST overnight at 4° C. respectively. After that, the membrane was further incubated with HRP-conjugated secondary antibodies for 60 minutes. Finally, protein bands were visualized by using the ECL Western Blotting Detection Reagents (Invitrogen).

[2] = system: Atg7-knockout (Atg7-ko or Atg7−/−) mouse embryonic fibroblasts; test: GFP-LC3 puncta in Atg7 deficient MEFs; type: cell-based; conditions: 20 μM liensinine or 10 μM others, 24 h (FIGS. 4a to 4c)
Experimental: GFP-LC3 puncta formation was quantified as previously described. In brief, both Atg7 wild-type (Atg7-wt or Atg7+/+) and deficient (Atg7-/-) mouse embryonic fibroblasts (MEFs) were transfected with GFP-LC3 plasmid and then grown on coverslips in a 6-well plate. The cells were then treated with 20 μM of […], 10 μM of isoliensinine, 10 μM of dauricine, 10 μM of cepharanthine, hernandezine or 10 μM of thalidezine. for 24 h. The cells were then fixed in 4% paraformaldehyde for 20 minutes at room temperature and then rinsed with PBS. Slides were mounted with FluorSaveTM mounting media (Calbiochem, San Diego, Calif.) and examined by fluorescence microscopy. The number of GFP-positive cells with GFP-LC3 puncta formation was examined under the Nikon ECLIPSE 80i microscope. Representative images were captured with CCD digital camera Spot RT3TM (Diagnostic Instruments, Inc., Melville, N.Y.). To quantify for autophagy, the percentage of cells with punctate GFP-LC3 fluorescence was calculated by counting the number of the cells with punctate GFP-LC3 fluorescence in GFP-positive cells. A minimum of 150 cells from 3 randomly selected fields were scored.

[3] = system: HeLa cells expressing GFP-LC3; test: GFP-LC3 puncta quantification in the presence of AMPK inhibitor compound C; type: cell-based, human; conditions: compound C 5 μM, 24 hours (FIG. 5b)
Experimental: GFP-LC3 puncta formation was quantified as previously described. In brief, HeLa cells expressing GFP-LC3 were treated with indicated concentrations of […], isoliensinine, dauricine, cepharanthine, hernandezine and thalidezine in the presence of AMPK inhibitor, compound C (CC, 5 μM), for 24 hours. The cells were then fixed in 4% paraformaldehyde for 20 minutes at room temperature and then rinsed with PBS. Slides were mounted with FluorSaveTM mounting media (Calbiochem) and examined by fluorescence microscopy. To quantify for autophagy, the percentage of cells with punctate GFP-LC3 fluorescence was calculated by counting the number of the cells with punctate GFP-LC3 fluorescence in GFP-positive cells. A minimum of 150 cells from 3 randomly selected fields were scored.

[4] = system: a panel of cancer and normal cells; test: GFP-LC3 puncta formation in a panel of cancer and normal cells; type: cell-based, human; conditions: fluorescent microscopy (FIG. 2c)
Experimental: (§1) GFP-LC3 puncta formation was quantified as previously described. In brief, GFP-LC3 transfected cells grown on coverslips in a 6-well plate were treated with or without 20 μM of […], 10 μM of isoliensinine, dauricine, cepharanthine, hernandezine or thalidezine for 4 hours, the cells were then fixed in 4% paraformaldehyde for 20 minutes at room temperature and then rinsed with PBS. Slides were mounted with FluorSaveTM mounting media (Calbiochem, San Diego, Calif.) and examined by fluorescence microscopy. The number of GFP-positive cells with GFP-LC3 puncta formation was examined under the Nikon ECLIPSE 80i microscope. Representative images were captured with CCD digital camera Spot RT3TM (Diagnostic Instruments, Inc., Melville, N.Y.). To quantify for autophagy, the percentage of cells with punctate GFP-LC3 fluorescence was calculated by counting the number of the cells with punctate GFP-LC3 fluorescence in GFP-positive cells. A minimum of 150 cells from 3 randomly selected fields was scored.

[5] = system: EGFP-tagged mutant huntingtin (HDQ55, HDQ74); test: Removal of mutant huntingtin by immunoblotting against EGFP; type: cell-based; conditions: PC 12 cells, 5-10 μM, 24 h, immunoblotting against EGFP antibody (FIG. 8b)
Experimental: PC 12 cells were transfected transiently with EGFP-HDQ55/74 plasmids for 24 h using Lipofectamine Plus LTX reagent (Invitrogen) according to the manufacturer's protocol. The transfected cells were then treated with […], isoliensinine, dauricine, cepharanthine, hernandezine and thalidezine for 24 h. The removal of mutant huntingtin, ([…]74) was then quantitated by immunoblotting with antibody against EGFP or by immunocytochemistry under fluorescence microscopy.

HeLa cancer cells = test: Quantification of autophagy GFP-LC3 puncta in HeLa cells; type: cell-based, human; conditions: 20 μM liensinine or 10 μM others, 4 hours, compared to DMSO control (FIG. 2a)
Experimental: as §1

[6] = Homo sapiens, 72 h, read-out: mean IC50 value (cell cytotoxicity)

Molecule: COc1cc2c(cc1OC)[C@@H](Cc1ccc(Oc3cc(C[C@@H]4c5cc(OC)c(OC)cc5CCN4C)ccc3O)cc1)N(C)CC2 [dauricine]
IC50 [1, 6]: 4.52 to 61.8 µM
phosphorylation of AMPK (AMPK): activate
GFP-LC3 puncta formation in Atg7-knockout cells [2]: not
compound-induced GFP-LC3 puncta formation in the presence of AMPK inhibitor (Compound C) [3]: significant reduction
formation of GFP-LC3 puncta [4]: increased
clearance of overexpressed EGFP-tagged mutant huntingtin (HDQ55, HDQ74) [5]: enhanced
GFP-LC3 puncta formation (HeLa cancer cells): significantly induced

Molecule: COc1ccc2cc1Oc1ccc(cc1)C[C@H]1c3cc(c(OC)cc3CCN1C)Oc1c(OC)c(OC)c(OC)c3c1[C@H](C2)N(C)CC3 [hernandezine]
IC50 [1, 6]: 4.52 to 61.8 µM
phosphorylation of AMPK (AMPK): activate
GFP-LC3 puncta formation in Atg7-knockout cells [2]: not
compound-induced GFP-LC3 puncta formation in the presence of AMPK inhibitor (Compound C) [3]: significant reduction
formation of GFP-LC3 puncta [4]: increased
clearance of overexpressed EGFP-tagged mutant huntingtin (HDQ55, HDQ74) [5]: enhanced
GFP-LC3 puncta formation (HeLa cancer cells): significantly induced

Molecule: COc1ccc(C[C@@H]2c3cc(Oc4cc(C[C@@H]5c6cc(O)c(OC)cc6CCN5C)ccc4O)c(OC)cc3CCN2C)cc1 [isoliensinine]
IC50 [1, 6]: 4.52 to 61.8 µM
phosphorylation of AMPK (AMPK): activate
GFP-LC3 puncta formation in Atg7-knockout cells [2]: not
compound-induced GFP-LC3 puncta formation in the presence of AMPK inhibitor (Compound C) [3]: significant reduction
formation of GFP-LC3 puncta [4]: increased
clearance of overexpressed EGFP-tagged mutant huntingtin (HDQ55, HDQ74) [5]: enhanced
GFP-LC3 puncta formation (HeLa cancer cells): significantly induced

IC50 [1]: 4.52 to 61.8 µM
Molecule: COc1cc2c(cc1OC)[C@@H](Cc1ccc(O)c(Oc3cc4c(cc3OC)CCN(C)[C@@H]4Cc3ccc(O)cc3)c1)N(C)CC2 [liensinine]
phosphorylation of AMPK (AMPK): activate
GFP-LC3 puncta formation in Atg7-knockout cells [2]: not
compound-induced GFP-LC3 puncta formation in the presence of AMPK inhibitor (Compound C) [3]: significant reduction
formation of GFP-LC3 puncta [4]: increased
clearance of overexpressed EGFP-tagged mutant huntingtin (HDQ55, HDQ74) [5]: enhanced
GFP-LC3 puncta formation (HeLa cancer cells): significantly induced

IC50 [1]: 4.52 to 61.8 µM
Molecule: thalidezine
phosphorylation of AMPK (AMPK): activate
GFP-LC3 puncta formation in Atg7-knockout cells [2]: not
compound-induced GFP-LC3 puncta formation in the presence of AMPK inhibitor (Compound C) [3]: significant reduction
formation of GFP-LC3 puncta [4]: increased
clearance of overexpressed EGFP-tagged mutant huntingtin (HDQ55, HDQ74) [5]: enhanced
GFP-LC3 puncta formation (HeLa cancer cells): significantly induced
